# Results: patent US10010614B2, “Derivatives of GLP-1 like peptides, and uses thereof” (Novo Nordisk A/S, priority 2013, dated 2018)
# Where two headings read alike, the source gives them in different places. Numbered stars: 1 amine (or outer) side, 2 acyl side, 3 side chain; on linkers, the order of the positions; unused ones are H or OH. Square brackets hold non-standard residues; d marks the D form. Side chains are listed from the residue outwards. Peptide text beside a SMILES is read from it. * marks the point of attachment. X2 = O=C(O)CCCCCCCCCCCCCCCCCCC(=O)NC[C@H]1CC[C@H](C(=O)N[C@@H](CCC(=O)NCCOCCOCCN*)C(=O)O)CC1; C20 diacid = O=C(O)CCCCCCCCCCCCCCCCCCC(=O)*; γGlu = O=C(O)[C@H](CCC(=O)[*:2])N[*:1]; Desaminohistidyl = O=C(CCc1c[nH]cn1)*; Trx = NC[C@H]1CC[C@H](C(=O)O)CC1; Suc = O=C(CCC(=O)[*:2])[*:1]; AEEA = NCCOCCOCC(=O)O; Aib = CC(C)(N)C(=O)O
# Tests used:
# [1] = target: T1, human GLP-1 receptor (Homo sapiens, UniProt P43220); test: GLP-1 receptor binding, competitive binding assay (125I-GLP-1, SPA) on isolated membranes;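 further: test compounds added at a range of concentrations to membranes from cells expressing the human GLP-1 receptor, scored by displacement of labelled ligand, read with WGA SPA beads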
# T1 construct: expressed in transfected cells; host or cells: membranes prepared from BHK cells (parent line BHKTS13), clone FCW467-12A
# T1 sequence (P43220 24-463): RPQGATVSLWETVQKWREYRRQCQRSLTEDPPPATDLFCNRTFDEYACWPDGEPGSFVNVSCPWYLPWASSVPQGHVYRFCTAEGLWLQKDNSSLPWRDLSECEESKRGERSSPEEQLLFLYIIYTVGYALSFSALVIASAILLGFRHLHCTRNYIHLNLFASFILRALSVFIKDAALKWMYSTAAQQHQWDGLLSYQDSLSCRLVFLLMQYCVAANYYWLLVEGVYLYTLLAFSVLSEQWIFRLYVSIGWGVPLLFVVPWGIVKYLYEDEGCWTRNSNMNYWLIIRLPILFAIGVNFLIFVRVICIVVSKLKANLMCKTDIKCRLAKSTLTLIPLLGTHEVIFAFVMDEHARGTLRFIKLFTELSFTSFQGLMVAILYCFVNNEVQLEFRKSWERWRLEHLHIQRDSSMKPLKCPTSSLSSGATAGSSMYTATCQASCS
# Protocol: The purpose of this example is to test the receptor binding of the GLP-1 derivatives in vitro. The receptor binding is a measure of affinity of a derivative for the human GLP-1 receptor.
# In this type of assay a labelled ligand (in this case ^125I-GLP-1) is bound to the receptor. Each derivative is added in a series of concentrations to isolated membranes containing the human GLP-1 receptor and displacement of the labelled ligand is monitored. The receptor binding is reported as the concentration at which half of the labelled ligand is displaced from the receptor, the IC50 value.
# The following chemicals were used in the assay: Human serum albumin (HSA) (Sigma A1653), DMEM w/o phenol red (Gibco 11880-028), Pen/strep (Invitrogen 15140-122), G418 (Invitrogen 10131-027), 1 M Hepes (Gibco 15630), EDTA (Invitrogen 15575-038), PBS (Invitrogen 14190-094), fetal calf serum (Invitrogen 16140-071), EGTA, MgCl2 (Merck 1.05832.1000), Tween 20 (Amresco 0850C335), SPA particles (wheat germ agglutinin (WGA) SPA beads, Perkin Elmer RPNQ0001), [^125I]-GLP-1]-(7-36)NH2 (produced in-house), OptiPlate™-96 (Packard 6005290).
# Buffer 1 consisted of 20 mM Na-HEPES plus 10 mM EDTA and pH was adjusted to 7.4. Buffer 2 consisted of 20 mM Na-HEPES plus 0.1 mM EDTA and pH was adjusted to 7.4. Assay buffer consisted of 50 mM HEPES supplemented with 5 mM EGTA, 5 mM MgCl2, 0.005% Tween 20 and pH was adjusted to 7.4. An 8% albumin stock consisted of HSA dissolved at 8% (w/v) in assay buffer. An 0.02% albumin stock consisted of HSA dissolved at 0.02% (w/v) in assay buffer.
# The cells express the human GLP-1 receptor.
# The cells were grown at 5% CO2 in DMEM, 10% fetal calf serum, 1% Pen/Strep (Penicillin/Streptomycin) and 1.0 mg/ml of the selection marker G418.
# To make a membrane preparation the cells were grown to approximately 80% confluence. The cells were washed twice in phosphate-buffered saline and harvested. The cells were pelleted using a brief centrifugation and the cell pellet was kept on ice. The cell pellet was homogenised with ULTRA-THURRAX™ dispersing instrument for 20-30 seconds in a suitable amount of buffer 1 (e.g., 10 ml). The homogenate was centrifuged for 15 minutes. The pellet was re-suspended (homogenised) in 10 ml buffer 2 and centrifuged. This step was repeated once more. The resulting pellet was re-suspended in buffer 2 and the protein concentration was determined. The membranes were aliquoted and stored at minus 80° C.
# For the receptor binding assay in the presence of low HSA (0.005%) 50 μl of the assay buffer was added to each well of an assay plate.
# For the receptor binding assay in the presence of high HSA (2%) 50 μl of the 8% albumin stock was added to each well of an assay plate.
# Cell membrane aliquots were thawed and diluted to their working concentration. Fifty μl were added to each well in the assay plate.
# WGA SPA beads were suspended in assay buffer at 20 mg/ml. The suspension was diluted to 10 mg/ml in assay buffer just prior to addition to the assay plate. Fifty μl were added to each well in the assay plate.
# The incubation was started by adding 25 μl of 480 pM solution of [^125I]-GLP-1]-(7-36)NH2 to each well of the assay plate. A 25 μl aliquot was reserved for measuring total counts/well.
# The assay plate was incubated for 2 h at 30° C.
# The assay plate was centrifuged for 10 min.
# The assay plate was read in a Packard TopCount NXT instrument.
# The data from the TopCount instrument were transferred to GraphPad Prism software. The software averaged the values for the replicates and performed a non-linear regression. IC50 values were calculated by the software and reported in nM.
# [2] = target: T1, human GLP-1 receptor; test: In vitro potency, CRE luciferase reporter gene assay in BHK cells expressing the human GLP-1 receptor; type: cell-based; details: whole cell reporter gene assay, 3 h incubation, no HSA, averages of at least two replicates
# Protocol: The purpose of this example is to test the activity, or potency, of the GLP-1 derivatives in vitro. The in vitro potency is the measure of human GLP-1 receptor activation in a whole cell assay.
# Semaglutide was included for comparison.
# In vitro potency was determined by measuring the response of the human GLP-1 receptor in a reporter gene assay. The assay was performed in a stably transfected BHK cell line that expresses the human GLP-1 receptor and contains the DNA for the cAMP response element (CRE) coupled to a promoter and the gene for firefly luciferase (CRE luciferase). When the human GLP-1 receptor is activated it results in the production of cAMP, which in turn results in the luciferase protein being expressed. When assay incubation is completed the luciferase substrate (luciferin) is added and the enzyme converts luciferin to oxyluciferin to produce bioluminescence. The luminescence is measured as the readout for the assay.
# The cells used in this assay (clone FCW467-12A/KZ10-1) were BHK cells with BHKTS13 as a parent cell line. The cells were derived from a clone (FCW467-12A) that expresses the human GLP-1 receptor and were established by further transfection with CRE luciferase to obtain the current clone.
# The cells were cultured at 5% CO2 in Cell Culture Medium. They were aliquoted and stored in liquid nitrogen. Before each assay an aliquot is taken up and washed twice in PBS before being suspended at the desired concentration in the assay specific buffer. For 96-well plates the suspension was made to give a final concentration of 5×10^3 cells/well.
# The following chemicals were used in the assay: Pluronic F-68 (10%) (Gibco 2404), human serum albumin (HSA) (Sigma A9511), ovalbumin (Sigma A5503), DMEM w/o phenol red (Gibco 11880-028), 1 M Hepes (Gibco 15630), Glutamax 100× (Gibco 35050) and steadylite plus (PerkinElmer 6016757).
# Cell Culture Medium consisted of DMEM medium with 10% FBS (Fetal Bovine Serum; Invitrogen 16140-071), 1 mg/ml G418 (Invitrogen 15140-122), 240 nM MTX (methotrexate; Sigma M9929) and 1% pen/strep (penicillin/streptomycin; Invitrogen 15140-122).
# Assay Medium consisted of DMEM w/o phenol red, 10 mM Hepes and 1× Glutamax. The Assay Buffer consisted of 2% ovalbumin and 0.2% Pluronic F-68 in Assay Medium.
# 1) Cell stocks were thawed in a 37° C. water bath.
# 2) Cells were washed three times in PBS.
# 3) The cells were counted and adjusted to 5×10^3 cells/50 μl (1×10^5 cells/ml) in Assay Medium. A 50 μl aliquot of cells was transferred to each well in the assay plate.
# 4) Stocks of the test compounds and reference compounds were diluted to a concentration of 0.2 μM in Assay Buffer. Compounds were diluted 10-fold to give the following concentrations: 2×10^−7 M, […]; 2×10^−9 M, 2×10^−10 M, 2×10^−11 M, 2×10^−12 M, 2×10^−13 M, and 2×10^−14 M. 5) A 50 μl aliquot of compound or blank was transferred from the dilution plate to the assay plate. Compounds were tested at the following final concentrations: 1×10^−7 M, 1×10^−8 M; 1×10^−9 M, 1×10^−10 M, 1×10^−11 M, 1×10^−12 M, 1×10^−13 M, and 1×10^−14 M. 6) The assay plate was incubated for 3 h in a 5% CO2 incubator at 37° C. 7) The assay plate was removed from the incubator and allowed to stand at room temperature for 15 min. 8) A 100 μl aliquot of steadylite plus reagent was added to each well of the assay plate (reagent was light sensitive). 9) Each assay plate was covered with aluminum foil to protect it from light and shaken for 30 min at room temperature. 10) Each assay plate was read in a Packard TopCount NXT instrument. Calculations and Results
# The data from the TopCount instrument were transferred to GraphPad Prism software. The software performs a non-linear regression (log(agonist) vs response).
# A minimum of two replicates was measured for each sample. The reported values are averages of the replicates.
# [3] = High HSA IC50 (nM), high serum albumin (2.0% HSA final assay concentration)
# [4] = Low HSA IC50 (nM), low serum albumin (max. 0.001% final assay concentration)
"IC50 ([1]; high serum albumin (2.0% HSA final assay concentration), read-out: High HSA IC50)","IC50 ([1]; low serum albumin (max. 0.001% final assay concentration), read-out: Low HSA IC50)",SMILES,"IC50 [1, 3]","IC50 [1, 4]",EC50 [2]
,,CC[C@H](C)[C@H](NC(=O)[C@H](Cc1ccccc1)NC(=O)[C@H](CCC(=O)O)NC(=O)[C@H](CCCNC(=N)N)NC(=O)[C@H](C)NC(=O)[C@H](C)NC(=O)[C@H](CCC(N)=O)NC(=O)[C@H](CCC(=O)O)NC(=O)[C@H](CCC(=O)O)NC(=O)[C@H](CC(C)C)NC(=O)[C@H](Cc1ccc(O)cc1)NC(=O)[C@H](CO)NC(=O)[C@H](CO)NC(=O)[C@@H](NC(=O)[C@H](CC(=O)O)NC(=O)[C@H](CO)NC(=O)[C@@H](NC(=O)[C@H](Cc1ccccc1)NC(=O)[C@@H](NC(=O)CNC(=O)[C@H](CCC(=O)O)NC(=O)C(C)(C)NC(=O)[C@@H](N)Cc1c[nH]cn1)[C@@H](C)O)[C@@H](C)O)C(C)C)C(=O)N[C@@H](C)C(=O)N[C@@H](Cc1c[nH]c2ccccc12)C(=O)N[C@@H](CC(C)C)C(=O)N[C@H](C(=O)N[C@@H](CCCNC(=N)N)C(=O)NCC(=O)N[C@@H](CCCNC(=N)N)C(=O)NCC(=O)N[C@@H](CCCCNC(=O)CCC(=O)NCCOCCOCCNC(=O)CC[C@H](NC(=O)[C@H]1CC[C@H](CNC(=O)CCCCCCCCCCCCCCCCCCC(=O)O)CC1)C(=O)O)C(=O)NCC(=O)NCC(=O)N[C@@H](CO)C(=O)N[C@@H](CCCCNC(=O)CCC(=O)NCCOCCOCCNC(=O)CC[C@H](NC(=O)[C@H]1CC[C@H](CNC(=O)CCCCCCCCCCCCCCCCCCC(=O)O)CC1)C(=O)O)C(=O)O)C(C)C [Example 23] (H-H[Aib]EGTFTSDVSSYLEEQAAREFIAWLVRGRGK([Suc-X2])GGSK([Suc-X2])-OH),201 nM,1.4 nM,0.022 nM
,,CC[C@H](C)[C@H](NC(=O)[C@H](Cc1ccccc1)NC(=O)[C@H](CCC(=O)O)NC(=O)[C@H](CCCNC(=N)N)NC(=O)[C@H](C)NC(=O)[C@H](C)NC(=O)[C@H](CCC(N)=O)NC(=O)[C@H](CCC(=O)O)NC(=O)[C@H](CCC(=O)O)NC(=O)[C@H](CC(C)C)NC(=O)[C@H](Cc1ccc(O)cc1)NC(=O)[C@H](CO)NC(=O)[C@H](CO)NC(=O)[C@@H](NC(=O)[C@H](CC(=O)O)NC(=O)[C@H](CO)NC(=O)[C@@H](NC(=O)[C@H](Cc1ccccc1)NC(=O)[C@@H](NC(=O)CNC(=O)[C@H](CCC(=O)O)NC(=O)C(C)(C)NC(=O)[C@@H](N)Cc1c[nH]cn1)[C@@H](C)O)[C@@H](C)O)C(C)C)C(=O)N[C@@H](C)C(=O)N[C@@H](Cc1c[nH]c2ccccc12)C(=O)N[C@@H](CC(C)C)C(=O)N[C@H](C(=O)N[C@@H](CCCNC(=N)N)C(=O)NCC(=O)N[C@@H](CCCNC(=N)N)C(=O)NCC(=O)N[C@@H](CCCCNC(=O)COCCOCCNC(=O)COCCOCCNC(=O)COCCOCCNC(=O)COCCOCCNC(=O)COCCOCCNC(=O)COCCOCCNC(=O)CC[C@H](NC(=O)[C@H]1CC[C@H](CNC(=O)CCCCCCCCCCCCCCCCCCC(=O)O)CC1)C(=O)O)C(=O)NCC(=O)NCC(=O)N[C@@H](CO)C(=O)N[C@@H](CCCCNC(=O)COCCOCCNC(=O)COCCOCCNC(=O)COCCOCCNC(=O)COCCOCCNC(=O)COCCOCCNC(=O)COCCOCCNC(=O)CC[C@H](NC(=O)[C@H]1CC[C@H](CNC(=O)CCCCCCCCCCCCCCCCCCC(=O)O)CC1)C(=O)O)C(=O)O)C(C)C [Example 24] (H-H[Aib]EGTFTSDVSSYLEEQAAREFIAWLVRGRGK([AEEA-AEEA-AEEA-AEEA-AEEA-AEEA-γGlu-Trx-C20 diacid])GGSK([AEEA-AEEA-AEEA-AEEA-AEEA-AEEA-γGlu-Trx-C20 diacid])-OH),84 nM,0.67 nM,0.007 nM
270 nM,4.1 nM,CC[C@H](C)[C@H](NC(=O)[C@H](Cc1ccccc1)NC(=O)[C@H](CCC(=O)O)NC(=O)[C@H](CCCNC(=N)N)NC(=O)[C@H](C)NC(=O)[C@H](C)NC(=O)[C@H](CCC(N)=O)NC(=O)[C@H](CCC(=O)O)NC(=O)[C@H](CCC(=O)O)NC(=O)[C@H](CC(C)C)NC(=O)[C@H](Cc1ccc(O)cc1)NC(=O)[C@H](CO)NC(=O)[C@H](CO)NC(=O)[C@@H](NC(=O)[C@H](CC(=O)O)NC(=O)[C@H](CO)NC(=O)[C@@H](NC(=O)[C@H](Cc1ccccc1)NC(=O)[C@@H](NC(=O)CNC(=O)[C@H](CCC(=O)O)NC(=O)C(C)(C)NC(=O)CCc1cnc[nH]1)[C@@H](C)O)[C@@H](C)O)C(C)C)C(=O)N[C@@H](C)C(=O)N[C@@H](Cc1c[nH]c2ccccc12)C(=O)N[C@@H](CC(C)C)C(=O)N[C@H](C(=O)N[C@@H](CCCNC(=N)N)C(=O)NCC(=O)N[C@@H](CCCNC(=N)N)C(=O)NCC(=O)N[C@@H](CCCCNC(=O)COCCOCCNC(=O)COCCOCCNC(=O)COCCOCCNC(=O)COCCOCCNC(=O)CC[C@H](NC(=O)CCCCCCCCCCCCCCCCCCC(=O)O)C(=O)O)C(=O)NCC(=O)NCC(=O)N[C@@H](CO)C(=O)N[C@@H](CCCCNC(=O)COCCOCCNC(=O)COCCOCCNC(=O)COCCOCCNC(=O)COCCOCCNC(=O)CC[C@H](NC(=O)CCCCCCCCCCCCCCCCCCC(=O)O)C(=O)O)C(=O)O)C(C)C [Example 20] (Desaminohistidyl-[Aib]EGTFTSDVSSYLEEQAAREFIAWLVRGRGK([AEEA-AEEA-AEEA-AEEA-γGlu-C20 diacid])GGSK([AEEA-AEEA-AEEA-AEEA-γGlu-C20 diacid])-OH; C-terminus assumed),,,0.0084 nM
,,CC[C@H](C)[C@H](NC(=O)[C@H](Cc1ccccc1)NC(=O)[C@H](CCC(=O)O)NC(=O)[C@H](CCCNC(=N)N)NC(=O)[C@H](C)NC(=O)[C@H](C)NC(=O)[C@H](CCC(N)=O)NC(=O)[C@H](CCC(=O)O)NC(=O)[C@H](CCC(=O)O)NC(=O)[C@H](CC(C)C)NC(=O)[C@H](Cc1ccc(O)cc1)NC(=O)[C@H](CO)NC(=O)[C@H](CO)NC(=O)[C@@H](NC(=O)[C@H](CC(=O)O)NC(=O)[C@H](CO)NC(=O)[C@@H](NC(=O)[C@H](Cc1ccccc1)NC(=O)[C@@H](NC(=O)CNC(=O)[C@H](CCC(=O)O)NC(=O)C(C)(C)NC(=O)[C@@H](N)Cc1c[nH]cn1)[C@@H](C)O)[C@@H](C)O)C(C)C)C(=O)N[C@@H](C)C(=O)N[C@@H](Cc1c[nH]c2ccccc12)C(=O)N[C@@H](CC(C)C)C(=O)N[C@H](C(=O)N[C@@H](CCCNC(=N)N)C(=O)NCC(=O)N[C@@H](CCCCNC(=O)COCCOCCNC(=O)COCCOCCNC(=O)CC[C@H](NC(=O)[C@H]1CC[C@H](CNC(=O)CCCCCCCCCCCCCCCCCCC(=O)O)CC1)C(=O)O)C(=O)NCC(=O)N[C@@H](CCC(=O)O)C(=O)NCC(=O)N1CCC[C@H]1C(=O)N[C@@H](C)C(=O)N[C@@H](CCCCNC(=O)COCCOCCNC(=O)COCCOCCNC(=O)CC[C@H](NC(=O)[C@H]1CC[C@H](CNC(=O)CCCCCCCCCCCCCCCCCCC(=O)O)CC1)C(=O)O)C(=O)O)C(C)C [Example 16] (H-H[Aib]EGTFTSDVSSYLEEQAAREFIAWLVRGK([AEEA-AEEA-γGlu-Trx-C20 diacid])GEGPAK([AEEA-AEEA-γGlu-Trx-C20 diacid])-OH),602 nM,1.4 nM,0.025 nM
